Measurements published in the Deep4Chem optical property database.
“And” between values parts separate entries of the source, which are not always exact repeats. Equal values may be shown once.

Test: solvent given as SMILES
[1] = in O=P(c1ccccc1)(c1ccccc1)c1ccccc1Oc1ccccc1P(=O)(c1ccccc1)c1ccccc1

**Q.** Which results are given for O=Cc1ccc(C2=C3C=c4c(oc5ccccc45)=[N+]3[B-](F)(F)n3c2cc2c4ccccc4oc23)cc1?
**A.** fluorescence lifetime (in C1CCCCC1): 2.47 ns; fluorescence lifetime (in C1CCOC1): 2.09 ns; fluorescence lifetime (in CC#N): 2.38 ns; fluorescence lifetime (in CCOC(C)=O): 2.12 ns; fluorescence lifetime (in CN(C)C=O): 2.3 ns; fluorescence lifetime (in CO): 2.73 ns; fluorescence lifetime (in Cc1ccccc1): 2.44 ns; fluorescence lifetime (in ClCCl): 2.49 ns

**Q.** Which results are given for CCNc1ccc2c(C(F)(F)F)cc(=O)oc2c1?
**A.** fluorescence lifetime (in C1CCC2CCCCC2C1): 3.67 ns; fluorescence lifetime (in C1CCCCC1): 3.56 ns; fluorescence lifetime (in CC1CCCCC1): 3.55 ns; fluorescence lifetime (in CC#N): 5.23 ns; fluorescence lifetime (in CC(C)=O): 5.08 ns; fluorescence lifetime (in CC(C)O): 5.14 ns; fluorescence lifetime (in CCC(C)CC): 3.39 ns; fluorescence lifetime (in CCCC(C)C): 3.38 ns; fluorescence lifetime (in CCCCCC): 3.3 ns; fluorescence lifetime (in CCCCCCO): 5.23 ns; fluorescence lifetime (in CCCCO): 5.24 ns; fluorescence lifetime (in CCO): 5.04 ns; fluorescence lifetime (in CCOC(C)=O): 4.83 ns; fluorescence lifetime (in CO): 4.84 ns

**Q.** For CCCCCCN1C(=O)c2cccc3c(-c4ccc(Cl)s4)ccc(c23)C1=O, which fluorescence lifetime (in ClC(Cl)Cl) is on record?
**A.** 0.0093 ns

**Q.** For CCNc1cc2oc(=O)cc(C(F)(F)F)c2cc1C, which fluorescence lifetime (in CC#N) is on record?
**A.** 7.7 ns

**Q.** For COc1ccc2c(c1)c(C#N)cc1c(OC)c(OC)c3cc(C#N)c4cc(OC)ccc4c3c12, which fluorescence lifetime (in ClC(Cl)Cl) is on record?
**A.** 6 ns

**Q.** For Cc1ccc(-n2c(C)ccc2C)cc1, which fluorescence lifetime (in CC#N) is on record?
**A.** 4.4 ns

**Q.** Which results are given for CC(C)(C)c1ccc2c(c1)c1cc(C(C)(C)C)ccc1n2-c1ccc(S(=O)(=O)c2ccc(-n3c4ccc(C(C)(C)C)cc4c4cc(C(C)(C)C)ccc43)cc2)cc1?
**A.** fluorescence lifetime (in Cc1ccccc1): 5.3 ns; fluorescence lifetime [1]: 7.6 ns

**Q.** With c1ccc(-c2nc(-c3ccc(-c4ccc(-c5ccc(-c6nc(-c7ccccc7)c(-c7ccccc7)o6)cc5)cc4)cc3)oc2-c2ccccc2)cc1 as the compound, how does the fluorescence lifetime (in C1COCCO1) read?
**A.** 0.78 ns

**Q.** For CC1=CC(C)=[N+]2C1=Cc1c3ccccc3c(C#Cc3ccsc3)n1[B-]2(F)F, which fluorescence lifetime (in CCCCCC) is on record?
**A.** 5.54 ns

**Q.** And the fluorescence lifetime (in CCCCCCCCO)?
**A.** 4.91 ns

**Q.** What about the fluorescence lifetime (in CCOC(C)=O) of the same compound?
**A.** 5.21 ns

**Q.** And the fluorescence lifetime (in CN(C)C=O)?
**A.** 4.8 ns

**Q.** For COC(=O)c1cc(=O)n(C)c2cc(-c3cccc(N(C)C)c3)sc12, which fluorescence lifetime (in ClCCl) is on record?
**A.** 2.64 ns

**Q.** For COc1ccc(-c2c3cc4ccccc4cc3c(-c3ccc(OC)cc3)c3cc4sc(C)cc4cc23)cc1, which fluorescence lifetime (in ClCCl) is on record?
**A.** 15.4 ns

**Q.** For CCCCCCn1c2ccccc2c2cc(-c3ccc(-c4cc(-c5ccccn5)nc(-c5ccccn5)c4)cc3)ccc21, which fluorescence lifetime (in ClCCl) is on record?
**A.** 1.51 ns

**Q.** With COc1ccc2c(c1)CCC1=C(C#Cc3cc4ccccc4c4ccccc34)O[B-](F)(F)[O+]=C12 as the compound, how does the fluorescence lifetime (in ClCCl) read?
**A.** 1.33 ns

**Q.** What does the source list for F[B-]1(F)n2cccc2C=C2C=CC=[N+]21?
**A.** fluorescence lifetime (in C1CCCCC1): 6.47 ns; fluorescence lifetime (in CC(C)=O): 7.12 ns; fluorescence lifetime (in CCCCCC): 6.79 ns; fluorescence lifetime (in CCO): 7.02 ns; fluorescence lifetime (in CCOC(C)=O): 6.9 ns; fluorescence lifetime (in CO): 7.35 ns and 7.33 ns; fluorescence lifetime (in ClCCl): 6.78 ns; fluorescence lifetime (in OCC(F)(F)F): 8.23 ns

**Q.** With CCC[Si](CCC)(CCC)c1cc2ccc3cccc4ccc(c1C(=O)NC(C)(C)C)c2c34 as the compound, how does the fluorescence lifetime (in ClC(Cl)Cl) read?
**A.** 6.91 ns

**Q.** Which fluorescence lifetime (in CCCO) does the source give for CCOC(=O)c1ccc2c(c1)sc1c3ccc(C(=O)OCC)cc3sc21 here?
**A.** 0.35 ns

**Q.** For CC(=O)[B-]1(C(C)=O)OC(C)=CC(c2ccc3ccccc3c2)=[O+]1, which fluorescence lifetime (in CC#N) is on record?
**A.** 13.6 ns

**Q.** What about the fluorescence lifetime (in ClC(Cl)(Cl)Cl) of the same compound?
**A.** 1.6 ns

**Q.** With COCCOCCOCCN1C(=O)c2cc(NCCOCCO)c3c4c(cc(NCCOCCO)c(c24)C1=O)C(=O)N(CCOCCOCCOC)C3=O as the compound, how does the fluorescence lifetime (in CO) read?
**A.** 8.2 ns

**Q.** What about the fluorescence lifetime (in ClC(Cl)Cl) of the same compound?
**A.** 9.6 ns

**Q.** And the fluorescence lifetime (in O)?
**A.** 4.3 ns

**Q.** With N#Cc1ccc(N(c2ccc(C#N)cc2)c2ccc3c4cccc5c(N(c6ccc(C#N)cc6)c6ccc(C#N)cc6)ccc(c6cccc2c63)c54)cc1 as the compound, how does the fluorescence lifetime (in ClCCl) read?
**A.** 3.54 ns

**Q.** For CC1(C)c2ccccc2N(c2ccccc2)c2ccc(S(=O)(=O)c3ccc4c(c3)C(C)(C)c3ccccc3N4c3ccccc3)cc21, which fluorescence lifetime [1] is on record?
**A.** 2.06 ns

**Q.** Which fluorescence lifetime (in Cc1ccccc1) does the source give for COC(=O)/C(C#N)=c1\s/c(=c2/s/c(=C(/C#N)C(=O)OC)c3cc(-c4ccc(F)cc4)sc23)c2sc(-c3ccc(F)cc3)cc12 here?
**A.** 2.9 ns

**Q.** For O=P1(c2ccccc2)C(c2ccc(N(c3ccccc3)c3ccccc3)cc2)=Cc2cc3ccccc3cc21 (stereo not drawn), which fluorescence lifetime (in ClCCl) is on record?
**A.** 4.7 ns

**Q.** With CCC1(CC)c2cc(B(c3c(C)cc(C)cc3C)c3c(C)cc(C)cc3C)ccc2-c2c1c1c(c3c2C(CC)(CC)c2cc(N(c4ccccc4)c4ccccc4)ccc2-3)C(CC)(CC)c2cc(N(c3ccccc3)c3ccccc3)ccc2-1 as the compound, how does the fluorescence lifetime (in C1CCOC1) read?
**A.** 14.4 ns

**Q.** For CC(=O)c1ccc(-c2ccc3c(c2)C(=O)c2cc(-c4ccc(C(C)=O)cc4)ccc2-3)cc1, which fluorescence lifetime (in C1CCOC1) is on record?
**A.** 1.2 ns

**Q.** For CNc1cccc2c1C(=O)c1ccccc1-2, which fluorescence lifetime (in C1CCCCC1) is on record?
**A.** 1.6 ns

**Q.** And the fluorescence lifetime (in CC#N)?
**A.** 4.2 ns

**Q.** And the fluorescence lifetime (in CCO)?
**A.** 2.8 ns

**Q.** What about the fluorescence lifetime (in c1ccccc1) of the same compound?
**A.** 2.8 ns

**Q.** With Cc1nc2c(ccc3ccc(O)cc32)oc1=O as the compound, how does the fluorescence lifetime (in c1ccccc1) read?
**A.** 3.9 ns
